Experimental data as given in article PMC10787677, “Characterization of a novel aspartic protease from Trichoderma asperellum for the preparation of duck blood peptides” (Applied Microbiology and Biotechnology, 2024).
Non-standard residues stand in square brackets, D forms with d. Residues, ends and D or L forms follow the SMILES beside them. *: point of attachment. Sta = CC(C)C[C@H](N)[C@@H](O)CC(=O)O; Isovaleryl = CC(C)CC(=O)*

Molecular target: T1, TaproA1 (Trichoderma asperellum, UniProt A0A6V8QUH5)
T1 construct: mature enzyme about 36 kDa; precursor 521 residues; purified on Q-Sepharose Fast Flow
T1 sequence (A0A6V8QUH5 189-517 limits assumed): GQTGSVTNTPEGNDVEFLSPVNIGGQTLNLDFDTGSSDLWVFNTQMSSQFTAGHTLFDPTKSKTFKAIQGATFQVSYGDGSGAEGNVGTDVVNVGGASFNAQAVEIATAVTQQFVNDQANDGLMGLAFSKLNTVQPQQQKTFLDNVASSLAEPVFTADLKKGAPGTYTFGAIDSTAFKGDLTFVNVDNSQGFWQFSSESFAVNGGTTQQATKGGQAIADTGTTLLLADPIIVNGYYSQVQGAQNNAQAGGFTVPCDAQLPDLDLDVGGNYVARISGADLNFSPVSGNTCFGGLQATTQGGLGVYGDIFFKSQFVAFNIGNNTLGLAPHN
Test: residual casein hydrolysis after […] min preincubation, Folin phenol read-out
Type: biochemical
Settings: read-out: Relative activity ^b (%)

CC(C)CC(=O)N[C@H](C(=O)N[C@H](C(=O)N[C@@H](CC(C)C)[C@@H](O)CC(=O)N[C@@H](C)C(=O)N[C@@H](CC(C)C)[C@@H](O)CC(=O)O)C(C)C)C(C)C [Pepstatin A] (Isovaleryl-VV[Sta]A[Sta]-OH)
activity at 10 µM: 0.7 ± 0.1%
